Measured values reported in patent US12054503B2, “Amphiphilic material and application thereof in preparation for liposome” (ZHEJIANG UNIVERSITY, priority 2021, dated 2024).

Key:
[1] = system: orthotropic pancreatic tumor (BxPC3-Luci); assay: In vivo antitumor activity in orthotropic BxPC3 tumor-bearing mice
Method: The orthotropic pancreatic tumor was established by using the bioluminescent BxPC3 cells (BxPC3-Luci). Bioluminescence intensities in mice were measured using the in vivo imaging system of Caliper IVIS Lumina II (PerkinElmer, USA) to evaluate tumour growth. After inoculation with bioluminescent BxPC3 cells for 8 days, the mice were selected and grouped into five groups (n=5). SCGLN, SGLN, free GEM (all dose equivalent to GEM 20 mg/kg), SCLN and PBS were intravenous injected every two days for a total of five times, the tumor site was treated with ultrasound stimulation (intensity: 2 W/cm^2, 3 MHz, duty cycle: 50%, duration: 10 min, Mettler Sonicator-740) after injection. On the first administration (8th day), 12th, 16th, and 20th day, tumor progress was assessed and semi-quantitatively analyzed via bioluminescence after injection of 10 mg/mL D-luciferin in PBS (200 μL) by using the in vivo imaging system. Mice were sacrificed on the 20th day, and tumors were dissected and weighed. The tumor inhibition rate=100%×(mean tumor weight of PBS group−mean tumor weight of experimental group)/mean tumor weight of PBS group. The tumors were fixed with 4% neutral buffered paraformaldehyde and embedded in paraffin. Tissue sections of 5-μm thick were mounted onto glass slides and stained with hematoxylin-eosin (H&E) and examined by light microscopy (OLYMPUS, BX51, Japan). […]

U251 glioma = assay: In vivo antitumor activity in mice bearing U251 glioma subcutaneously
Method: In vivo antitumor activity of the liposomal nanometer particle was further tested in another low permeability tumor of U251 glioma. The mice were subcutaneously inoculated with 2×10^7 U251 cells on the right flank. Same as the experiment of pancreatic tumor treatment, mice were randomly grouped into five groups (n=5) on the 6th day after inoculation. SCGLN, SGLN, free GEM (all dose equivalent to GEM 20 mg/kg), SCLN and PBS were intravenous injected every two days for a total of five times, the tumor site was treated with ultrasound stimulation (intensity: 2 W/cm^2, 3 MHz, duty cycle: 50%, duration: 10 min, Mettler Sonicator-740) after injection, the first administration was on the 6th day. The width and length of the tumors and the bodyweight of mice were measured during the treatment. At the end of the experiment, the mice were euthanized, and tumors were dissected and weighed. The therapeutic efficacy of the treatments was evaluated by comparing the experimental group with the control group.

Nc1ccn([C@@H]2O[C@H](CO)[C@@H](O)C2(F)F)c(=O)n1 [GEM, gemcitabine]
Mean tumor inhibition rate ([1]; dose equivalent to GEM 20 mg/kg i.v. every two days, five times, ultrasound stimulation, tumor weight on 20th day): 66.7%
Body weight decrease at the end of the experiment ([1]; end of the experiment): ~10 % of the initial weight
Anti-tumor effect (tumor eradication ability) (U251 glioma; dose equivalent to GEM 20 mg/kg i.v. every two days, five times, ultrasound stimulation, end of the experiment): 68.8%
Weight of mice during the treatment (U251 glioma; mouse, in vivo): gradually decreased
